“And” between values parts separate entries of the source, which are not always exact repeats. Identical values can stand only once. Inconclusive results and toxic doses are left out.
Tested on: P388 leukemia ip, CD2F1 mice, survival T/C
Assay: NCI In Vivo Anticancer Drug Screen. Data for tumor model P388 Leukemia (intraperitoneal) in CD2F1 (CDF1) mice
Settings: endpoint: median survival time, higher = longer survival
In short: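 Mice carrying the transplanted tumor received test compound or vehicle. Survival was recorded in each group, and the value is the treated-group measurement divided by that of the vehicle-treated control group.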

[1] = dose: 50.0 mg/kg/injection, schedule: Q01DX009 (ip), vehicle: Klucel (hydroxypropylcellulose) (HPC)
[2] = dose: 100.0 mg/kg/injection, schedule: Q01DX009 (ip), vehicle: Klucel (hydroxypropylcellulose) (HPC)
[3] = dose: 200.0 mg/kg/injection, schedule: Q01DX009 (ip), vehicle: Klucel (hydroxypropylcellulose) (HPC)
[4] = dose: 7.5 mg/kg/injection, schedule: Q01DX005 (ip), vehicle: saline with Tween-80
[5] = dose: 30.0 mg/kg/injection, schedule: Q01DX005 (ip), vehicle: saline with Tween-80
[6] = dose: 240.0 mg/kg/injection, schedule: Q01DX005 (ip), vehicle: saline with Tween-80
[7] = dose: 60.0 mg/kg/injection, schedule: Q01DX005 (ip), vehicle: saline with Tween-80
[8] = dose: 25.0 mg/kg/injection, schedule: Q04DX003 (ip), vehicle: saline with Tween-80
[9] = dose: 50.0 mg/kg/injection, schedule: Q04DX003 (ip), vehicle: saline with Tween-80
[10] = dose: 100.0 mg/kg/injection, schedule: Q04DX003 (ip), vehicle: saline with Tween-80
[11] = dose: 50.0 mg/kg/injection, schedule: Q01DX009 (ip), vehicle: saline with Tween-80
[12] = dose: 100.0 mg/kg/injection, schedule: Q01DX009 (ip), vehicle: saline with Tween-80

SMILES: Cc1cc(Br)c2c(c1)C(C(F)(F)F)(C(F)(F)F)OC(C)(C)N2
- T/C [1]: 94 % of control
- T/C [2]: 100 % of control
- T/C [3]: 101 % of control

SMILES: CN(C)CCN1C(=O)c2cccc3cc([N+](=O)[O-])cc(c23)C1=O
- T/C (dose: 0.78 mg/kg/injection, schedule: Q01DX009 (ip), vehicle: saline with Tween-80): 101 % of control
- T/C (dose: 3.12 mg/kg/injection, schedule: Q01DX009 (ip), vehicle: saline with Tween-80): 117 % of control and 124 % of control

SMILES: [N-]=[N+]=N/C=C1\CCOC1=O
- T/C [4]: 101 % of control
- T/C (dose: 15.0 mg/kg/injection, schedule: Q01DX005 (ip), vehicle: saline with Tween-80): 100 % of control
- T/C [5]: 99 % of control and 100 % of control
- T/C [6]: 99 % of control

SMILES: CCCCOC1NC(=O)NC(=O)C1(F)C(=O)OCC (stereo not drawn)
- T/C [7]: 108 % of control
- T/C (dose: 120.0 mg/kg/injection, schedule: Q01DX005 (ip), vehicle: saline with Tween-80): 117 % of control
- T/C [6]: 121 % of control

SMILES: O=C1NC2(CCCCC2)C(=O)N1CCl
- T/C (dose: 6.25 mg/kg/injection, schedule: Q01DX005 (ip), vehicle: saline): 100 % of control
- T/C (dose: 12.5 mg/kg/injection, schedule: Q01DX005 (ip), vehicle: saline): 101 % of control
- T/C (dose: 25.0 mg/kg/injection, schedule: Q01DX005 (ip), vehicle: saline): 108 % of control
- T/C (dose: 30.0 mg/kg/injection, schedule: Q01DX005 (ip), vehicle: saline): 104 % of control
- T/C (dose: 50.0 mg/kg/injection, schedule: Q01DX005 (ip), vehicle: saline): 103 % of control
- T/C (dose: 60.0 mg/kg/injection, schedule: Q01DX005 (ip), vehicle: saline): 122 % of control
- T/C (dose: 100.0 mg/kg/injection, schedule: Q01DX005 (ip), vehicle: saline): 112 % of control
- T/C (dose: 120.0 mg/kg/injection, schedule: Q01DX005 (ip), vehicle: saline): 118 % of control
- T/C (dose: 240.0 mg/kg/injection, schedule: Q01DX005 (ip), vehicle: saline): 114 % of control

SMILES: NC(N)=NS(=O)(=O)c1ccc(N=Nc2c(O)n(-c3ccccc3)c(=S)n(-c3ccccc3)c2=O)cc1
- T/C (dose: 60.0 mg/kg/injection, schedule: Q01DX005 (ip), vehicle: Klucel (hydroxypropylcellulose) (HPC)): 105 % of control
- T/C (dose: 120.0 mg/kg/injection, schedule: Q01DX005 (ip), vehicle: Klucel (hydroxypropylcellulose) (HPC)): 99 % of control
- T/C (dose: 240.0 mg/kg/injection, schedule: Q01DX005 (ip), vehicle: Klucel (hydroxypropylcellulose) (HPC)): 99 % of control

SMILES: C=CC12COC(=O)CC1CCC(=O)C2 (stereo not drawn)
- T/C (dose: 100.0 mg/kg/injection, schedule: Q04DX003 (ip), vehicle: Klucel (hydroxypropylcellulose) (HPC)): 99 % of control
- T/C (dose: 200.0 mg/kg/injection, schedule: Q04DX003 (ip), vehicle: Klucel (hydroxypropylcellulose) (HPC)): 100 % of control

SMILES: CC1=NN(C(=O)c2ccccc2)C(=O)C1N=Nc1ccc([N+](=O)[O-])cc1 (stereo not drawn)
- T/C (dose: 25.0 mg/kg/injection, schedule: Q04DX002 (ip), vehicle: saline with Tween-80): 101 % of control
- T/C (dose: 50.0 mg/kg/injection, schedule: Q04DX002 (ip), vehicle: saline with Tween-80): 100 % of control
- T/C (dose: 100.0 mg/kg/injection, schedule: Q04DX002 (ip), vehicle: saline with Tween-80): 88 % of control and 92 % of control

SMILES: O=C(Nc1ncnc2nc[nH]c12)c1ccccc1
- T/C [1]: 107 % of control
- T/C [2]: 97 % of control
- T/C [3]: 101 % of control
- T/C (dose: 400.0 mg/kg/injection, schedule: Q01DX009 (ip), vehicle: Klucel (hydroxypropylcellulose) (HPC)): 112 % of control

SMILES: O=[N+]([O-])/N=c1/nc2scc(-c3ccc([N+](=O)[O-])cc3)n2s1
- T/C (dose: 1.87 mg/kg/injection, schedule: Q01DX005 (ip), vehicle: saline with Tween-80): 99 % of control
- T/C (dose: 3.75 mg/kg/injection, schedule: Q01DX005 (ip), vehicle: saline with Tween-80): 107 % of control
- T/C [4]: 99 % of control and 97 % of control
- T/C [5]: 91 % of control
- T/C [7]: 106 % of control
- T/C [6]: 87 % of control

SMILES: NC(=O)CNC(c1ccccc1)c1ccccc1
- T/C (dose: 37.5 mg/kg/injection, schedule: Q01DX009 (ip), vehicle: saline with Tween-80): 107 % of control
- T/C (dose: 75.0 mg/kg/injection, schedule: Q01DX009 (ip), vehicle: saline with Tween-80): 106 % of control
- T/C (dose: 150.0 mg/kg/injection, schedule: Q01DX009 (ip), vehicle: saline with Tween-80): 100 % of control

SMILES: CC(C)=C/C(C)=N/NC(N)=O
- T/C (dose: 12.5 mg/kg/injection, schedule: Q04DX003 (ip), vehicle: saline with Tween-80): 98 % of control
- T/C [8]: 94 % of control
- T/C [9]: 91 % of control
- T/C [10]: 94 % of control

SMILES: CCCCCCC(=O)/C=C/c1ccccc1OC(=O)c1ccc([N+](=O)[O-])cc1
- T/C [11]: 98 % of control
- T/C [12]: 99 % of control
- T/C (dose: 200.0 mg/kg/injection, schedule: Q01DX009 (ip), vehicle: saline with Tween-80): 96 % of control

SMILES: O=[n+]1c2ccccc2n([O-])c2cc(Cl)ccc21
- T/C [8]: 112 % of control
- T/C [11]: 150 % of control
- T/C [9]: 112 % of control
- T/C [12]: 154 % of control and 174 % of control
- T/C [10]: 107 % of control
- T/C (dose: 200.0 mg/kg/injection, schedule: Q04DX003 (ip), vehicle: saline with Tween-80): 114 % of control
- T/C (dose: 400.0 mg/kg/injection, schedule: Q04DX003 (ip), vehicle: saline with Tween-80): 114 % of control

SMILES: CN1CCC(O)(/C=C\C2(O)CCN(C)CC2)CC1
- T/C (dose: 100.0 mg/kg/injection, schedule: Q01DX001 (ip), vehicle: saline): 96 % of control
- T/C (dose: 200.0 mg/kg/injection, schedule: Q01DX001 (ip), vehicle: saline): 89 % of control
- T/C (dose: 400.0 mg/kg/injection, schedule: Q01DX001 (ip), vehicle: saline): 107 % of control

SMILES: O=C(Oc1ccc[nH]c1=O)c1ccc(F)cc1
- T/C (dose: 50.0 mg/kg/injection, schedule: Q01DX009 (ip), vehicle: saline): 99 % of control and 104 % of control
- T/C (dose: 100.0 mg/kg/injection, schedule: Q01DX009 (ip), vehicle: saline): 100 % of control and 101 % of control
- T/C (dose: 200.0 mg/kg/injection, schedule: Q01DX009 (ip), vehicle: saline): 106 % of control and 108 % of control
- T/C (dose: 400.0 mg/kg/injection, schedule: Q01DX009 (ip), vehicle: saline): 111 % of control

SMILES: Cc1ccc(S(=O)(=O)C23C(N=NC2(C)C)C3(C)C)cc1 (stereo not drawn)
- T/C (dose: 50.0 mg/kg/injection, schedule: Q01DX005 (ip), vehicle: Klucel (hydroxypropylcellulose) (HPC)): 103 % of control
- T/C (dose: 100.0 mg/kg/injection, schedule: Q01DX005 (ip), vehicle: Klucel (hydroxypropylcellulose) (HPC)): 103 % of control
- T/C (dose: 200.0 mg/kg/injection, schedule: Q01DX005 (ip), vehicle: Klucel (hydroxypropylcellulose) (HPC)): 100 % of control

SMILES: CCCCC/C(=C\c1ccccc1)C1OCC(COCC)O1 (stereo not drawn)
- T/C (dose: 100.0 mg/kg/injection, schedule: Q01DX009 (ip), vehicle: saline + Tween-80 + alcohol): 119 % of control
- T/C (dose: 200.0 mg/kg/injection, schedule: Q01DX009 (ip), vehicle: saline + Tween-80 + alcohol): 118 % of control
